Test results reported in patent US8598314B2 (priority 2007, dated 2013).

How the values were obtained:
[1] = target: T1, human GIP receptor (HEK-GIPR) (Homo sapiens, UniProt P48546); experiment: GIP receptor binding (RBA) displacement assay; details: for inhibition at 0.01 µM: read-out: GIP RBA % inhibition at 10 nM
T1 construct: expressed in transfected cells
T1 sequence (P48546 22-466): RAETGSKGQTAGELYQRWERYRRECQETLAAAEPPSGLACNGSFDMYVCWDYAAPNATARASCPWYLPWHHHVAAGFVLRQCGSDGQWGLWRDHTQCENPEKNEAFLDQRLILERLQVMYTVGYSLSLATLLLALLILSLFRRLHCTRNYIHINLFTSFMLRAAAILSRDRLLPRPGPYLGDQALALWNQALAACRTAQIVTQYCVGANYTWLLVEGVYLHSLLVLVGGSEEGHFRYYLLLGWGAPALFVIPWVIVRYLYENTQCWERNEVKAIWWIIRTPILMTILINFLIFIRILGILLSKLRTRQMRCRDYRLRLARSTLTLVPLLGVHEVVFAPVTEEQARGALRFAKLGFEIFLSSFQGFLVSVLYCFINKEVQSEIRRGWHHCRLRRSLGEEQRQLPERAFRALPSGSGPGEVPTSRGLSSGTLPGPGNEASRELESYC
Experimental: Membrane fractions were prepared from confluent cell cultures of HEK-GIPR, snap frozen, and stored at −80° C. until use. […] Reactions were allowed to proceed to equilibrium for 90 minutes at room temperature with constant shaking. The reaction mixtures were then filtered through 96-well glass fiber filter plates separating bound and unbound fractions of radioligand.

NIH/Swiss mice = experiment: Oral glucose tolerance test (OGTT), glucose lowering; assay type: in vivo; details: 30 nM/kg, blood glucose
Experimental: . Test compounds were injected IP (t=0 min) immediately following baseline measurements of 2 hour fasted NIH/Swiss mice. Blood samples were taken at 60, 120, and 180 minutes after injection. In some assays, samples were also taken at 240 minutes after the injection. Blood glucose was measured with a One-Touch® Ultra® glucose meter (LifeScan, Inc., Milpitas, Calif.). […].
The tests were performed as described in Example 5.

CC[C@H](C)[C@H](NC(=O)[C@H](CO)NC(=O)[C@H](Cc1ccc(O)cc1)NC(=O)[C@H](CC(=O)O)NC(=O)[C@H](CO)NC(=O)[C@@H](NC(=O)[C@H](Cc1ccccc1)NC(=O)[C@@H](NC(=O)CNC(=O)[C@H](CCC(=O)O)NC(=O)[C@@H](C)NC(=O)[C@@H](N)Cc1ccc(O)cc1)[C@@H](C)O)[C@@H](C)CC)C(=O)N[C@@H](C)C(=O)N[C@@H](CC(C)C)C(=O)N[C@@H](CC(=O)O)C(=O)N[C@@H](CCCCN)C(=O)N[C@H](C(=O)N[C@@H](Cc1c[nH]cn1)C(=O)N[C@@H](CCC(N)=O)C(=O)N[C@@H](CCC(N)=O)C(=O)N[C@@H](CC(=O)O)C(=O)N[C@@H](Cc1ccccc1)C(=O)N[C@H](C(=O)N[C@@H](CC(N)=O)C(=O)N[C@@H](Cc1c[nH]c2ccccc12)C(=O)N[C@@H](CC(C)C)C(=O)N[C@@H](CC(C)C)C(=O)N[C@@H](C)C(=O)N[C@@H](CCC(N)=O)C(=O)N[C@@H](CCCCN)C(=O)NCCC(=O)NCCC(=O)NCCCC[C@H](NC(=O)[C@@H]1CCC(=O)N1)C(=O)N[C@@H](Cc1c[nH]c2ccccc12)C(=O)N[C@@H](C)C(=O)N1CCC[C@H]1C(=O)O)C(C)C)[C@@H](C)CC [[^2D-Ala,^14Leu] GIP-(1-30)-β-Ala-β-Ala-Lys(α-NH-Pyroglutamoyl)-Trp-Ala-Pro-COOH]
inhibition at 0.01 µM [1]: 66%

CC[C@H](C)[C@H](NC(=O)[C@H](CO)NC(=O)[C@H](Cc1ccc(O)cc1)NC(=O)[C@H](CC(=O)O)NC(=O)[C@H](CO)NC(=O)[C@@H](NC(=O)[C@H](Cc1ccccc1)NC(=O)[C@@H](NC(=O)CNC(=O)[C@H](CCC(=O)O)NC(=O)[C@@H](C)NC(=O)[C@@H](N)Cc1ccc(O)cc1)[C@@H](C)O)[C@@H](C)CC)C(=O)N[C@@H](C)C(=O)N[C@@H](CCSC)C(=O)N[C@@H](CC(=O)O)C(=O)N[C@@H](CCCCN)C(=O)N[C@H](C(=O)N[C@@H](Cc1c[nH]cn1)C(=O)N[C@@H](CCC(N)=O)C(=O)N[C@@H](CCC(N)=O)C(=O)N[C@@H](CC(=O)O)C(=O)N[C@@H](Cc1ccccc1)C(=O)N[C@H](C(=O)N[C@@H](CC(N)=O)C(=O)N[C@@H](Cc1c[nH]c2ccccc12)C(=O)N[C@@H](CC(C)C)C(=O)N[C@@H](CC(C)C)C(=O)N[C@@H](C)C(=O)N[C@@H](CCC(N)=O)C(=O)N[C@@H](CCCCN)C(=O)NCCOCCOCC(=O)NCCOCCOCC(=O)NCCCCCCCCCCC(=O)NCCC(=O)NCCC(=O)NCCCC[C@H](NC(=O)[C@@H]1CCC(=O)N1)C(=O)N[C@@H](Cc1c[nH]c2ccccc12)C(=O)N[C@@H](C)C(=O)N1CCC[C@H]1C(=O)O)C(C)C)[C@@H](C)CC [[^2D-Ala]GIP-(1-30)-Ado-Ado-Aun-βAla-βAla-ε-NH-Lys(α-NH-Pyroglutamoyl)-Trp-Ala-Pro]
inhibition at 0.01 µM [1]: 70%

CC[C@H](C)[C@H](NC(=O)[C@H](CO)NC(=O)[C@H](Cc1ccc(O)cc1)NC(=O)[C@H](CC(=O)O)NC(=O)[C@H](CO)NC(=O)[C@@H](NC(=O)[C@H](Cc1ccccc1)NC(=O)[C@@H](NC(=O)CNC(=O)[C@H](CCC(=O)O)NC(=O)[C@H](C)NC(=O)[C@H](Cc1ccc(O)cc1)NC(=O)COCCOCCNC(=O)COCCOCCNC(=O)CC[C@H](N)C(=O)N1CCC[C@H]1C#N)[C@@H](C)O)[C@@H](C)CC)C(=O)N[C@@H](C)C(=O)N[C@@H](CCSC)C(=O)N[C@@H](CC(=O)O)C(=O)N[C@@H](CCCCN)C(=O)N[C@H](C(=O)N[C@@H](Cc1c[nH]cn1)C(=O)N[C@@H](CCC(N)=O)C(=O)N[C@@H](CCC(N)=O)C(=O)N[C@@H](CC(=O)O)C(=O)N[C@@H](Cc1ccccc1)C(=O)N[C@H](C(=O)N[C@@H](CC(N)=O)C(=O)N[C@@H](Cc1c[nH]c2ccccc12)C(=O)N[C@@H](CC(C)C)C(=O)N[C@@H](CC(C)C)C(=O)N[C@@H](C)C(=O)N[C@@H](CCC(N)=O)C(=O)NC(CCCCN)C(N)=O)C(C)C)[C@@H](C)CC (stereo partly drawn) [N-(γ-L-Glu-2-(S)-cyanopyrrolidyl)-Ado-Ado) GIP(1-30)]
inhibition at 0.01 µM [1]: 32%

CC[C@H](C)[C@H](NC(=O)[C@H](CO)NC(=O)[C@H](Cc1ccc(O)cc1)NC(=O)[C@H](CC(=O)O)NC(=O)[C@H](CO)NC(=O)[C@@H](NC(=O)[C@H](Cc1ccccc1)NC(=O)[C@@H](NC(=O)CNC(=O)[C@H](CCC(=O)O)NC(=O)[C@@H](C)NC(=O)[C@@H](N)Cc1ccc(O)cc1)[C@@H](C)O)[C@@H](C)CC)C(=O)N[C@@H](C)C(=O)N[C@@H](CC(C)C)C(=O)N[C@@H](CC(=O)O)C(=O)N[C@@H](CCCCN)C(=O)N[C@H](C(=O)N[C@@H](Cc1c[nH]cn1)C(=O)N[C@@H](CCC(N)=O)C(=O)N[C@@H](CCC(N)=O)C(=O)N[C@@H](CC(=O)O)C(=O)N[C@@H](Cc1ccccc1)C(=O)N[C@H](C(=O)N[C@@H](CC(N)=O)C(=O)N[C@@H](Cc1c[nH]c2ccccc12)C(=O)N[C@@H](CC(C)C)C(=O)N[C@@H](CC(C)C)C(=O)N[C@@H](C)C(=O)N[C@@H](CCC(N)=O)C(=O)N[C@@H](CCCCN)C(=O)N1CCC[C@H]1C(=O)N[C@@H](CO)C(=O)N[C@@H](CO)C(=O)NCC(=O)N[C@@H](C)C(=O)N1CCC[C@H]1C(=O)N1CCC[C@H]1C(=O)N1CCC[C@H]1C(=O)N[C@@H](CO)C(=O)NCCOCCOCC(=O)NCCOCCOCC(=O)NCCCCCCCCCCC(=O)NCCC(=O)NCCC(=O)NCCCC[C@H](NC(=O)[C@@H]1CCC(=O)N1)C(=O)N[C@@H](Cc1c[nH]c2ccccc12)C(=O)N[C@@H](C)C(=O)N1CCC[C@H]1C(=O)O)C(C)C)[C@@H](C)CC [[^2D-Ala^14Leu] GIP(1-30)-exendin-4(31-39)-Ado-Ado-Aun-βAla-βAla-ε-NH-Lys(α-NH-Pyroglutamoyl)-Trp-Ala-Pro]
inhibition at 0.01 µM [1]: 86%

[^14Leu] GIP(1-30)-exendin-4(31-39)-Ado-Lys-N-ε-(2-(S)-cyano pyrrolidyl)
OGTT (30 nM/kg) % maximal decrease (NIH/Swiss mice): −24% | GIP RBA % inhibition at 10 nM ([1]; 10 nM conjugate, 30 pM 125I-GIP, relative to human GIP (100%)): 99%
